The supplement of paper PMC4862054

Legend:
Assay in all cases: normalised response (% of control), CellTiter-Glo; higher = more viable cells (100 = DMSO, 0 = benzethonium chloride kill control)
Settings in all cases: incubation time: 72 h
CAL-120 = system: CAL-120
Experimental: (§1)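 DSRT, 72 h incubation, CellTox Green / CellTiter-Glo readout. Signal is normalised to DMSO and benzethonium chloride controls. Value is the normalised response at the highest dose.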

CAL-148 = system: CAL-148
Experimental: as §1

CAL-51 = system: CAL-51
Experimental: as §1

DU-4475 = system: DU-4475
Experimental: as §1

HCC1143 = system: HCC1143
Experimental: as §1

HCC1599 = system: HCC1599
Experimental: as §1

HCC1937 = system: HCC1937
Experimental: as §1

HDQ-P1 = system: HDQ-P1
Experimental: as §1

MDA-MB-436 = system: MDA-MB-436
Experimental: as §1

MDA-MB-453 = system: MDA-MB-453
Experimental: as §1

MDA-MB-468 = system: MDA-MB-468
Experimental: as §1

SK-BR-3 = system: SK-BR-3
Experimental: as §1

SMILES	normalised response (CAL-120) [%]	normalised response (CAL-148) [%]	normalised response (CAL-51) [%]	normalised response (DU-4475) [%]	normalised response (HCC1143) [%]	normalised response (HCC1599) [%]	normalised response (HCC1937) [%]	normalised response (HDQ-P1) [%]	normalised response (MDA-MB-436) [%]	normalised response (MDA-MB-453) [%]	normalised response (MDA-MB-468) [%]	normalised response (SK-BR-3) [%]
Oc1ncnc2[nH]ncc12 [Allopurinol] (10000 nM)	99.1	106	131	99.7	104	102	102	95.1	101	111	97.9	114
Nc1ncn([C@@H]2O[C@H](CO)[C@@H](O)[C@H]2O)c(=O)n1 [Azacitidine] (10000 nM)	61.6	87.7	91.2	60.7	75	76.1	69.3	63	54.7	102	17	92.4
Cn1cnc2c(F)c(Nc3ccc(Br)cc3Cl)c(C(=O)NOCCO)cc21 [Selumetinib] (10000 nM)	66.8	76.1	106	0.53	76.6	72.7	76.3	56.3	85.4	93.8	69.9	92
COc1cc2c(cc1O)CC[C@@H]1[C@@H]2CC[C@]2(C)[C@@H](O)CC[C@@H]12 [2-methoxyestradiol] (10000 nM)	62.6	39.8	31.1	42.2	49.3	31.6	68.5	73.7	44.7	59.7	34.4	17.1
O=NN(CCCl)C(=O)NCCCl [Carmustine] (10000 nM)	96.2	100	116	96.5	106	104	99.6	96.1	96.7	87.3	97.3	95.2
CC(=O)O[C@@]12CO[C@@H]1C[C@H](O)[C@@]1(C)C(=O)[C@H](O)C3=C(C)[C@@H](OC(=O)[C@H](O)[C@@H](NC(=O)OC(C)(C)C)c4ccccc4)C[C@@](O)([C@@H](OC(=O)c4ccccc4)[C@H]21)C3(C)C [Docetaxel] (1000 nM)	55.3	45.5	32.9	44	38.3	29.6	73.8	64.2	32.8	44.4	34.9	10.7
CC1(C)CNc2cc(NC(=O)c3cccnc3NCc3ccncc3)ccc21 [Motesanib] (10000 nM)	103	86.9	122	98.6	94.8	107	97.8	92.5	95	91.6	87.6	86.3
Nc1nc2[nH]cnc2c(=S)[nH]1 [Thioguanine] (10000 nM)	37	68.2	28.6	24.1	66.7	28.2	35.8	31.8	31.3	79	48.9	62.1
O=C1CN2Cc3c(ccc(Cl)c3Cl)N=C2N1 [Anagrelide] (10000 nM)	96.5	96.4	88	98.9	93	97	97.9	90.9	96	100	92	102
CC(C)(C)c1cnc(CSc2cnc(NC(=O)C3CCNCC3)s2)o1 [SNS-032] (10000 nM)	43.3	77.1	16.7	10.3	15.1	7.5	38.6	24.3	18.2	56.4	6.47	4.26
Cn1cc(C2=Nc3cc(NC(=O)C(N)C4CCCCC4)cc4c3C2=CNNC4=O)cn1 (stereo not drawn) (10000 nM)	42.8	53.1	25.2	48.4	14.7	10.9	21.2	48.6	22.6	46.6	12.4	8.5
Cc1sc2c(c1C)C(c1ccc(Cl)cc1)=N[C@@H](CC(=O)OC(C)(C)C)c1nnc(C)n1-2 [(+)JQ1] (10000 nM)	78	49.1	47.5	20.4	58.3	85.5	68.2	71.1	76.4	32.6	36.6	53.2
CC1=C2C[C@H]3[C@@H](CC=C4C[C@@H](O)CC[C@@]43C)[C@@H]2CC[C@]12O[C@@H]1C[C@H](C)CN[C@H]1[C@H]2C [Cyclopamine] (10000 nM)	103	110	106	105	93.2	107	97.1	86	84.6	103	51.5	102
CC[C@@H]1C(=O)OC[C@@H]1Cc1cncn1C [Pilocarpine] (40000 nM)	91.2	88.6	134	95.7	89.6	104	96.7	91.9	89.7	92.7	96	102
